In article PMC3992280 (Biochimica et biophysica acta, 2014):
≈ marks a conversion by molar mass, not a printed value. Read-outs that look alike come from different tables or passages of the source.

How the values were obtained:
[1] = system: Mycobacterium smegmatis strain RHS 234; type: cell-based; details: Mycolicibacterium smegmatis, RHS234, 120 h
[2] = target: T1, tear lipocalin (Homo sapiens, UniProt P31025); assay: Protection from oxidation of rifamycins by tear lipocalin; type: physicochemical; details: tear lipocalin 100 μM; for oxidation by K3Fe(CN)6 after initial protection with tear lipocalin: K3Fe(CN)6 90 μM added after 180 min; for duration of protection from autoxidation by tear lipocalin: drug 15 μM, pH 7.3
T1 sequence (P31025 19-176): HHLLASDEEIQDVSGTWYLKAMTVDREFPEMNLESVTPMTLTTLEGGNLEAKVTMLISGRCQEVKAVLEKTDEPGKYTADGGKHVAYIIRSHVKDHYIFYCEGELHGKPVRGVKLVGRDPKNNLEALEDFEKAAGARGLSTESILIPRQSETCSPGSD

[3] = system: Mycobacterium tuberculosis; details: M. tuberculosis; cited from earlier work
[4] = system: Mycobacterium smegmatis strain mc^2155; assay: microbe, parasite or virus in culture; type: cell-based; details: for MIC: Mycolicibacterium smegmatis, MC^2155, 120 h; for resistance factor R (MICwt/MICmutant): mc^2155 versus RHS 234
[5] = Autoxidation of rifamycins in phosphate buffer; type: physicochemical; details: for spectral changes under autoxidizing conditions: phosphate buffer pH 7.3, trace metals, up to 24 h
[6] = system: serum albumin; details: cited from earlier work
[7] = monitored at 475 nm; cited from earlier work
[8] = target: T1, tear lipocalin; details: read-out: Kd for tear lipocalin; known dissociation constant; cited from earlier work
[9] = target: T1, tear lipocalin; assay: Rifamycin binding to tear lipocalin; details: increase in binding affinity to tear lipocalin
[10] = in vivo; cited from earlier work
[11] = in vivo; cited from earlier work; remark: listed apart in the source
[12] = system: CYP3A4; details: cited from earlier work
[13] = system: Staphylococcus aureus; details: in mice; cited from earlier work

CO[C@H]1/C=C/O[C@@]2(C)Oc3c(C)c(O)c4c(O)c(cc(O)c4c3C2=O)NC(=O)/C(C)=C\C=C\[C@H](C)[C@H](O)[C@@H](C)[C@@H](O)[C@@H](C)[C@H](OC(C)=O)[C@@H]1C [Rifamycin SV]
MIC [1]: 0.69 µM (≈ 0.481 µg/mL) | oxidation by K3Fe(CN)6 after initial protection with tear lipocalin [2]: appeared better protected | duration of protection from autoxidation by tear lipocalin [2]: at least 3 h | MIC [3]: .05 µg/mL (≈ 0.0717 µM) | MIC [4]: < 1.38 µM | spectral changes under autoxidizing conditions [5]: show spectral changes under autoxidizing conditions | fraction oxidized ([5]; within 30 minutes): less than 10%

CO[C@H]1/C=C/O[C@@]2(C)Oc3c(C)c(O)c4c(O)c(c5c(nc6cc(C)ccn65)c4c3C2=O)NC(=O)/C(C)=C\C=C\[C@H](C)[C@H](O)[C@@H](C)[C@@H](O)[C@@H](C)[C@H](OC(C)=O)[C@@H]1C [Rifaximin]
MIC [1]: 0.16 µM (≈ 0.126 µg/mL) | MIC [4]: < 1.27 µM | spectral changes under autoxidizing conditions [5]: did not show spectral changes under autoxidizing conditions

CO[C@H]1/C=C/O[C@@]2(C)Oc3c(C)c(O)c4c(O)c(c(/C=N/N5CCN(C)CC5)c(O)c4c3C2=O)NC(=O)/C(C)=C\C=C\[C@H](C)[C@H](O)[C@@H](C)[C@@H](O)[C@@H](C)[C@H](OC(C)=O)[C@@H]1C [Rifampin]
bound to serum albumin [6]: 80-85% | MIC [1]: 0.3 µM (≈ 0.247 µg/mL) | oxidation by K3Fe(CN)6 after initial protection with tear lipocalin [2]: rapidly oxidized | duration of protection from autoxidation by tear lipocalin [2]: at least 3 h | spectral changes of autoxidation, completeness [7]: nearly complete after 24 h | Kd [8]: 128 µM | MIC [4]: 2.43 µM (≈ 2 µg/mL) | spectral changes under autoxidizing conditions [5]: show spectral changes under autoxidizing conditions

CO[C@H]1/C=C/O[C@@]2(C)Oc3c(C)c(O)c4c(=O)c(c5oc6cc(N7CCN(CC(C)C)CC7)cc(O)c6nc-5c4c3C2=O)NC(=O)/C(C)=C\C=C\[C@H](C)[C@H](O)[C@@H](C)[C@@H](O)[C@@H](C)[C@H](OC(C)=O)[C@@H]1C [Rifalazil]
bound to serum albumin ([6]; in the circulation of animals): 99% | MIC [1]: < 0.06 µM | free energy change of binding, rifalazil over rifampin [9]: about 2.4 kcal/mole | side effects [10]: transient flue-symptoms, neutropenia, and thrombocytopenia | evidence of hepatotoxicity [11]: Notably lacking | induction of CYP3A4 [12]: Notably lacking | mycobactericidal activity relative to rifampin [4]: 16 times | MIC [4]: 0.13 µM (≈ 0.122 µg/mL) | resistance factor R (MICwt/MICmutant) [4]: 2 | resistance factor R (MICwt/MICmutant) ([4]; listed as rifalazil): ≈ 2 | spectral changes under autoxidizing conditions [5]: did not show spectral changes under autoxidizing conditions

CO[C@H]1/C=C/O[C@@]2(C)Oc3c(C)c(O)c4c(c3C2=O)C(=O)C=C(NC(=O)/C(C)=C\C=C\[C@H](C)[C@H](O)[C@@H](C)[C@@H](O)[C@@H](C)[C@H](OC(C)=O)[C@@H]1C)C4=O [Rifamycin S]
MIC [3]: .05 µg/mL (≈ 0.0719 µM) | ED50 compared with rifamycin SV [13]: higher ED50, than rifamycin SV

CO[C@H]1/C=C/O[C@@]2(C)Oc3c(C)c(O)c4c(c3C2=O)C2=NC3(CCN(CC(C)C)CC3)NC2=C(NC(=O)/C(C)=C\C=C\[C@H](C)[C@H](O)[C@@H](C)[C@@H](O)[C@@H](C)[C@H](OC(C)=O)[C@@H]1C)C4=O [Rifabutin]
MIC [1]: 0.07 µM (≈ 0.0593 µg/mL) | MIC [4]: 0.3 µM (≈ 0.254 µg/mL) | spectral changes under autoxidizing conditions [5]: did not show spectral changes under autoxidizing conditions

CO[C@H]1/C=C/O[C@@]2(C)Oc3c(C)c(O)c4c(O)c(c(/C=N/N5CCN(C6CCCC6)CC5)c(O)c4c3C2=O)NC(=O)/C(C)=C\C=C\[C@H](C)[C@H](O)[C@@H](C)[C@@H](O)[C@@H](C)[C@H](OC(C)=O)[C@@H]1C [Rifapentine]
MIC [1]: 0.14 µM (≈ 0.123 µg/mL) | oxidation by K3Fe(CN)6 after initial protection with tear lipocalin [2]: rapidly oxidized | duration of protection from autoxidation by tear lipocalin [2]: at least 3 h | MIC [4]: < 2.28 µM | spectral changes under autoxidizing conditions [5]: show spectral changes under autoxidizing conditions
